Test results from BigSolDB 2.1.

O=C(c1ccccc1)c1ccc(Cl)cc1
solubility (mole fraction)
Details	278.15 K	283.15 K	288.15 K	293.15 K	298.15 K	303.15 K	308.15 K	313.15 K	318.15 K	323.15 K
in acetone	0.0863	0.0934	0.116	0.146	0.181	0.224	0.277	0.342	0.454	0.615
in acetonitrile	0.0216	0.0258	0.0352	0.0438	0.0625	0.0858	0.131	0.19	0.307	0.616
in ethanol	0.00817	0.0103	0.0124	0.0151	0.0195	0.0239	0.0318	0.043	0.06	0.0856
in ethyl acetate	0.114	0.118	0.138	0.167	0.203	0.24	0.294	0.351	0.43	0.534
in isobutanol	0.0102	0.0113	0.0138	0.0173	0.0225	0.0305	0.0408	0.0549	0.0821	0.123
in isopropanol	0.00704	0.00886	0.0118	0.0153	0.0187	0.0223	0.0288	0.0398	0.0617	0.0896
in methanol	0.00549	0.00622	0.00802	0.00943	0.012	0.0149	0.0203	0.027	0.0384	0.0594
in methyl acetate	0.0971	0.109	0.134	0.164	0.196	0.239	0.289	0.354	0.417	0.494
in n-butanol	0.0271	0.0304	0.0347	0.0394	0.0436	0.0478	0.0531	0.0677	0.0993	0.211
in n-butyl acetate	0.133	0.142	0.156	0.182	0.212	0.248	0.285	0.329	0.383	0.454
in n-propanol	0.0111	0.0128	0.0163	0.0205	0.0247	0.0325	0.0424	0.0571	0.0829	0.135
